Results reported in US20230148599A1, “FUNGICIDAL MIXTURES CONTAINING PYRAZOLE DERIVATIVES” (FMC Corporation, priority 2020, published 2023).

Experiments:
Format in all cases: in vivo
Details in all cases: 50 ppm, 100 = 100% disease control, 0 = no control
[1] = tested on: Botrytis cinerea; experiment: Test E: tomato Botrytis, preventive spray on tomato seedlings
In short: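 Preventive test: seedlings sprayed to run-off with compound in acetone/water (50/50) plus 250 ppm PEG400, inoculated one day later with B. cinerea spores. Held 48 h saturated at 20° C, then 3 days at 24° C; disease control scored visually from 0 to 100 versus controls.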

[2] = tested on: Alternaria solani; experiment: Test F: tomato early blight, preventive spray on tomato seedlings
In short: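 Preventive test: one day after the compound spray, seedlings were inoculated with A. solani, incubated saturated at 27 °C for 48 h, then kept at 20 °C for 3 days. Test suspensions contained acetone/water 50/50 with 250 ppm PEG400 surfactant. Visual ratings run from 0 (no control) to 100 (full control).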

[3] = tested on: Phakopsora pachyrhizi; experiment: Test D: Asian soybean rust, preventive spray on soybean seedlings
In short: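 Compounds in acetone/water (50/50) with 250 ppm PEG400, dosed in ppm, sprayed to run-off on soybean seedlings; inoculated with P. pachyrhizi spores next day. Held 24 h at 22 °C in saturated air, then 8 days at 22 °C; visual rating of disease control, 0–100, relative to untreated controls.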

[4] = tested on: Septoria tritici; experiment: Test A: wheat leaf blotch, preventive spray on wheat seedlings
In short: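 Preventive test: one day after spraying seedlings to run-off (concentrations in ppm; acetone/water, 250 ppm PEG400), Septoria tritici spores applied. Scored after 48 h humid incubation at 24 °C plus 17 days at 20 °C, as percent disease control versus untreated controls (100 = full control).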

[5] = tested on: Puccinia recondita f. sp. tritici; experiment: Test B: wheat leaf rust, preventive spray on wheat seedlings
In short: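 Preventive test: compound in acetone/water 50/50 with 250 ppm PEG400 was sprayed onto wheat seedlings one day before inoculation with leaf rust spores. After 24 h in saturated air and 7 days in a growth chamber, both at 20 °C, disease control was scored from 0 to 100 against controls.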

[6] = tested on: Blumeria graminis f. sp. tritici; experiment: Test C: wheat powdery mildew, preventive spray on wheat seedlings
In short: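 Preventive test: inoculation with spore dust came one day after spraying seedlings to run-off with ppm suspensions in acetone/water (50/50) plus 250 ppm PEG400 surfactant. Visual ratings after 8 days' incubation at 20° C give percent disease control relative to controls.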

Cc1nn(C)c(Nc2ccccc2[N+](=O)[O-])c1-c1c(F)cccc1F [compound 135] was tested, and the “Test E disease control rating” value [1] was 99%, the “Test F disease control rating” value [2] was 0% and the “Test D disease control rating” value [3] was 0%. For the same molecule, the “Test A disease control rating” value [4] was 100%, the “Test B disease control rating” value [5] was 68% and the “Test C disease control rating” value [6] was 93%.
Cc1nn(C)c(Nc2ccccc2[N+](=O)[O-])c1-c1c(F)cccc1Cl [compound 136] was tested, and the “Test E disease control rating” value [1] was 99%, the “Test F disease control rating” value [2] was 0% and the “Test D disease control rating” value [3] was 0%. For the same molecule, the “Test A disease control rating” value [4] was 100%, the “Test B disease control rating” value [5] was 80% and the “Test C disease control rating” value [6] was 88%.
In the case of CCc1nn(C)c(Nc2c(F)cc(C)cc2[N+](=O)[O-])c1-c1ccc(F)cc1Cl [compound 137], the “Test E disease control rating” value [1] was 99%, the “Test F disease control rating” value [2] was 99% and the “Test D disease control rating” value [3] was 91%. The “Test A disease control rating” value [4] was 100%, the “Test B disease control rating” value [5] was 100% and the “Test C disease control rating” value [6] was 100%.
For COc1cc(F)c(Nc2c(-c3ccc(Cl)cc3Cl)c(C)nn2C)c([N+](=O)[O-])c1 [compound 138], the “Test E disease control rating” value [1] was 99%, the “Test F disease control rating” value [2] was 100% and the “Test D disease control rating” value [3] was 67%. The “Test A disease control rating” value [4] was 100%, the “Test B disease control rating” value [5] was 100% and the “Test C disease control rating” value [6] was 93%.
For Cc1nn(C)c(Nc2ccccc2[N+](=O)[O-])c1-c1ccc(F)cc1Br [compound 139], the “Test E disease control rating” value [1] was 100%, the “Test F disease control rating” value [2] was 33% and the “Test D disease control rating” value [3] was 0%. For the same molecule, the “Test A disease control rating” value [4] was 98%, the “Test B disease control rating” value [5] was 86% and the “Test C disease control rating” value [6] was 76%.
COc1ccc(-c2c(C)nn(C)c2Nc2ccccc2[N+](=O)[O-])c(Cl)c1 [compound 140] was tested, and the “Test E disease control rating” value [1] was 100%, the “Test F disease control rating” value [2] was 93% and the “Test D disease control rating” value [3] was 0%. For the same molecule, the “Test A disease control rating” value [4] was 99%, the “Test B disease control rating” value [5] was 86% and the “Test C disease control rating” value [6] was 31%.
In the case of COc1cc(Cl)c(Nc2c(-c3ccc(F)cc3F)c(C)nn2C)c([N+](=O)[O-])c1 [compound 141], the “Test E disease control rating” value [1] was 99%, the “Test F disease control rating” value [2] was 83% and the “Test D disease control rating” value [3] was 0%. The “Test A disease control rating” value [4] was 99%, the “Test B disease control rating” value [5] was 100% and the “Test C disease control rating” value [6] was 99%.
For COc1ccc(Nc2c(-c3ccc(Cl)cc3Cl)c(C)nn2C)c([N+](=O)[O-])c1 [compound 142], the “Test E disease control rating” value [1] was 99%, the “Test F disease control rating” value [2] was 80% and the “Test D disease control rating” value [3] was 25%. For the same molecule, the “Test A disease control rating” value [4] was 100%, the “Test B disease control rating” value [5] was 91% and the “Test C disease control rating” value [6] was 39%.
Cc1cc(F)c(Nc2c(-c3ccc(Cl)cc3Cl)c(C)nn2C)c([N+](=O)[O-])c1 [compound 143] was tested, and the “Test E disease control rating” value [1] was 99%, the “Test F disease control rating” value [2] was 100% and the “Test D disease control rating” value [3] was 87%. The “Test A disease control rating” value [4] was 99%, the “Test B disease control rating” value [5] was 100% and the “Test C disease control rating” value [6] was 96%.
In the case of Cc1cccc([N+](=O)[O-])c1Nc1c(-c2ccc(Cl)cc2Cl)c(C)nn1C [compound 144], the “Test E disease control rating” value [1] was 0%, the “Test F disease control rating” value [2] was 0% and the “Test D disease control rating” value [3] was 69%. The “Test A disease control rating” value [4] was 100%, the “Test B disease control rating” value [5] was 68% and the “Test C disease control rating” value [6] was 35%.
Cc1cc(Cl)c(Nc2c(-c3ccc(Cl)cc3Cl)c(C)nn2C)c([N+](=O)[O-])c1 [compound 145] was tested, and the “Test E disease control rating” value [1] was 85%, the “Test F disease control rating” value [2] was 24% and the “Test D disease control rating” value [3] was 0%. The “Test A disease control rating” value [4] was 98%, the “Test B disease control rating” value [5] was 92% and the “Test C disease control rating” value [6] was 52%.
For Cc1nn(C)c(Nc2c(Cl)cc(Cl)cc2[N+](=O)[O-])c1-c1ccc(Cl)cc1Cl [compound 146], the “Test E disease control rating” value [1] was 0%, the “Test F disease control rating” value [2] was 40% and the “Test D disease control rating” value [3] was 0%. The “Test A disease control rating” value [4] was 97%, the “Test B disease control rating” value [5] was 98% and the “Test C disease control rating” value [6] was 0%.
With COc1cc(F)c(-c2c(C)nn(C)c2Nc2ccccc2[N+](=O)[O-])c(F)c1 [compound 147] the “Test E disease control rating” value [1] was 100%, the “Test F disease control rating” value [2] was 99% and the “Test D disease control rating” value [3] was 0%. For the same molecule, the “Test A disease control rating” value [4] was 96%, the “Test B disease control rating” value [5] was 86% and the “Test C disease control rating” value [6] was 97%.
With Cc1nn(C)c(Nc2ccccc2[N+](=O)[O-])c1-c1c(F)cc(F)cc1Cl [compound 148] the “Test E disease control rating” value [1] was 99%, the “Test F disease control rating” value [2] was 100% and the “Test D disease control rating” value [3] was 13%. The “Test A disease control rating” value [4] was 100%, the “Test B disease control rating” value [5] was 99% and the “Test C disease control rating” value [6] was 98%.
With Cc1nn(C)c(Nc2ccccc2[N+](=O)[O-])c1-c1c(F)cc(F)cc1F [compound 149] the “Test E disease control rating” value [1] was 99%, the “Test F disease control rating” value [2] was 96% and the “Test D disease control rating” value [3] was 0%. For the same molecule, the “Test A disease control rating” value [4] was 100%, the “Test B disease control rating” value [5] was 80% and the “Test C disease control rating” value [6] was 97%.
For COc1ccc(Nc2c(-c3c(F)cc(C#N)cc3F)c(C)nn2C)c([N+](=O)[O-])c1 [compound 150], the “Test E disease control rating” value [1] was 100%, the “Test F disease control rating” value [2] was 99% and the “Test D disease control rating” value [3] was 13%. The “Test A disease control rating” value [4] was 100%, the “Test B disease control rating” value [5] was 100% and the “Test C disease control rating” value [6] was 98%.
In the case of Cc1nn(C)c(Nc2c(F)cccc2[N+](=O)[O-])c1-c1c(F)cc(Cl)cc1F [compound 151], the “Test E disease control rating” value [1] was 99%, the “Test F disease control rating” value [2] was 99% and the “Test D disease control rating” value [3] was 0%. The “Test A disease control rating” value [4] was 100%, the “Test B disease control rating” value [5] was 100% and the “Test C disease control rating” value [6] was 99%.
In the case of Cc1nn(C)c(Nc2c(Cl)cccc2[N+](=O)[O-])c1-c1c(F)cc(F)cc1Cl [compound 152], the “Test E disease control rating” value [1] was 99%, the “Test F disease control rating” value [2] was 92% and the “Test D disease control rating” value [3] was 91%. The “Test A disease control rating” value [4] was 99%, the “Test B disease control rating” value [5] was 100% and the “Test C disease control rating” value [6] was 98%.
Cc1cccc([N+](=O)[O-])c1Nc1c(-c2c(F)cc(F)cc2Cl)c(C)nn1C [compound 153] was tested, and the “Test E disease control rating” value [1] was 99%, the “Test F disease control rating” value [2] was 72% and the “Test D disease control rating” value [3] was 73%. The “Test A disease control rating” value [4] was 99%, the “Test B disease control rating” value [5] was 100% and the “Test C disease control rating” value [6] was 99%.
Cc1nn(C)c(Nc2ccccc2[N+](=O)[O-])c1-c1c(F)cc(F)cc1Br [compound 154] was tested, and the “Test E disease control rating” value [1] was 99%, the “Test F disease control rating” value [2] was 51% and the “Test D disease control rating” value [3] was 0%. For the same molecule, the “Test A disease control rating” value [4] was 99%, the “Test B disease control rating” value [5] was 80% and the “Test C disease control rating” value [6] was 98%.
With Cc1nn(C)c(Nc2c(F)cc(Br)cc2[N+](=O)[O-])c1-c1ccc(C#N)cc1Cl [compound 155] the “Test E disease control rating” value [1] was 100%, the “Test F disease control rating” value [2] was 93% and the “Test D disease control rating” value [3] was 0%. The “Test A disease control rating” value [4] was 99%, the “Test B disease control rating” value [5] was 99% and the “Test C disease control rating” value [6] was 90%.
For Cc1cc(Cl)c(Nc2c(-c3ccc(C#N)cc3Cl)c(C)nn2C)c([N+](=O)[O-])c1 [compound 156], the “Test E disease control rating” value [1] was 0%, the “Test F disease control rating” value [2] was 0% and the “Test D disease control rating” value [3] was 0%. For the same molecule, the “Test A disease control rating” value [4] was 91%, the “Test B disease control rating” value [5] was 91% and the “Test C disease control rating” value [6] was 66%.
Cc1cccc([N+](=O)[O-])c1Nc1c(-c2ccc(C#N)cc2Cl)c(C)nn1C [compound 157] was tested, and the “Test E disease control rating” value [1] was 9%, the “Test F disease control rating” value [2] was 0% and the “Test D disease control rating” value [3] was 0%. For the same molecule, the “Test A disease control rating” value [4] was 100%, the “Test B disease control rating” value [5] was 97% and the “Test C disease control rating” value [6] was 76%.
Cc1nn(C)c(Nc2c(Cl)cccc2[N+](=O)[O-])c1-c1c(F)cc(F)cc1F [compound 158] was tested, and the “Test E disease control rating” value [1] was 99%, the “Test F disease control rating” value [2] was 83% and the “Test D disease control rating” value [3] was 87%. The “Test A disease control rating” value [4] was 99%, the “Test B disease control rating” value [5] was 100% and the “Test C disease control rating” value [6] was 99%.
In the case of COc1ccc(Nc2c(-c3c(F)cc(F)cc3F)c(C)nn2C)c([N+](=O)[O-])c1 [compound 159], the “Test E disease control rating” value [1] was 99%, the “Test F disease control rating” value [2] was 99% and the “Test D disease control rating” value [3] was 13%. For the same molecule, the “Test A disease control rating” value [4] was 100%, the “Test B disease control rating” value [5] was 100% and the “Test C disease control rating” value [6] was 100%.
COc1cc(F)c(-c2c(C)nn(C)c2Nc2c(Cl)cccc2[N+](=O)[O-])c(F)c1 [compound 160] was tested, and the “Test E disease control rating” value [1] was 100%, the “Test F disease control rating” value [2] was 99% and the “Test D disease control rating” value [3] was 86%. For the same molecule, the “Test A disease control rating” value [4] was 98%, the “Test B disease control rating” value [5] was 100% and the “Test C disease control rating” value [6] was 96%.
